{"source": "patent US8343458B2", "about": "“Probes for in vivo targeting of active cysteine proteases” (The Board of Trustees of the Leland Stanford Junior …, priority 2008, dated 2013)", "key": {"MDA-MB-435 tumor": {"test_system": "MDA-MB-435 tumor", "test": "MicroPET imaging of MDA-MB-435 tumor-bearing mice", "type": "in vivo, mouse", "conditions": "MDA-MB-435 tumor, 1, 4 and 28 hours post injection", "description": "FIG. 3 is a composite photograph showing mouse uptake of labeled probe, i.e., a series of photographs of imaged mice. For purposes of reproduction, the image is converted to black and white and reversed. Lightest to darkest is a range between 0% ID (injected dose)/g and 1% ID/g. […] Arrows indicate location of tumors.\nWe performed micro PET imaging of mice bearing the MDA-MB-435 and C2C12/Ras tumors. The static microPET images (5 or 10-min scan, three tumor bearing mice were used for each study) of ^64Cu-Z-FK(DOTA)-AOMK are illustrated in coronal images of the subcutaneously implanted tumor-bearing mice (FIG. 3). […] The tumor, indicated by the arrow, is not clearly illuminated.\nPET imaging of tumor-bearing mice is performed on a microPET R4 rodent model scanner (Concorde Microsystems Inc, Knoxyille, Tenn.). The mice bearing C2C12/Ras and MDA-MB-435 tumors were injected with 5.55 MBq (150 μCi) of ^64Cu AOMK probe via the tail vein. At different times p.i., the mice were anesthetized with 2% isoflurane, and placed in the prone position and near the center of the field of view of microPET. The 5 or 10-min static scans were obtained and the images were reconstructed by a two-dimensional ordered subsets expectation maximum (OSEM) algorithm."}, "cathepsins B and L": {"test_system": "cathepsins B and L", "test": "Labeling of intact tumor cells (SDS-PAGE, gel scan)", "type": "cell-based, mouse (C2C12/Ras), human (MDA-MB-435)", "conditions": "C2C12/Ras and MDA-MB-435 cells, 555 KBq probe in culture medium for 2 h", "description": "FIG. 2 is a series of figures which, taken together, show the structure and function of representative in vivo probes. FIG. 2A is a schematic drawing of a chelator—conjugated probe, illustrating several component moieties. FIGS. 2B and 2C are gels showing expression and activity of enzyme targets of such probe, with a radionuclide label attached to the illustrated structure, showing the expression and activity of CB in a mouse myoblast cell line C2C12Ras and human breast cancer cell line MDA-MB-435. […] Cells were pretreated with JPM-OEt (50 μM) (+) or with control DMSO (0.1%) (−) for 2 h and labeled by addition of ^64Cu-Z-FK(DOTA)-AOMK (555 KBq, 15 μCi) to culture medium for 2 h. Cells were collected, lysed and analyzed after SDS-PAGE. The labeled proteases were visualized by scanning of the gel with a Typhoon 9410 imager.\nBefore applying the radiolabel probe in vivo we first tested the ability of the probe to label multiple tumor cell lines grown in vitro. We initially examined the labeling of the human breast cancer cell line MBA-MB-435 and a mouse myoblastoma cell line that had been transformed by overexpression of the ras oncogene (C2C12/Ras). Both of these cell lines were used for in vivo imaging studies with the NIRF-labeled cysteine cathepsin probes. To confirm earlier studies of these cells using the NIRF probes we labeled them with general Cy5-labeled probe GB123 (FIG. 1C). […] Labeling of the same cells with ^64Cu-Z-FK(DOTA)-AOMK confirmed that the DOTA produced a similar labeling pattern to that observed for the NIRF probe GB123.\nC2C12/Ras and MDA-MB-435 cells (0.25 M each well) were seeded in a six-well plate one day before the study. Cells were pretreated with the general papain family protease inhibitor JPM-OEt (50 μM^28) or with control DMSO (0.1%) for 1 h and labeled by addition of ^64Cu-Z-FK(DOTA)-AOMK (555 KBq, 15 μCi) to culture medium for 2 h. Cells was then washed with PBS and lysed. Equal amounts of protein per lane were separated by 12% SDS-PAGE. […] The labeled bands were quantified with ImageJ 1.36b (public domain software from National Institute of Health)."}}, "data": [{"smiles": "Cc1cccc(C)c1C(=O)OCC(=O)[C@H](CCCCNC(=O)CN1CCN(CC(=O)[O-])CCN(CC(=O)O)CCN(CC(=O)[O-])CC1)NC(=O)[C@H](Cc1ccccc1)NC(=O)OCc1ccccc1.[64Cu+2]", "note": "[^64Cu-Z-FK(DOTA)-AOMK]", "values": [{"measurement": "MicroPET tumor visualization / contrast", "setting": "MDA-MB-435 tumor", "result": "low tumor uptake and poor tumor to normal tissue contrast"}, {"measurement": "Labeling of active cathepsins in intact cells", "setting": "cathepsins B and L", "result": "efficiently modifies active cathepsins B and L"}]}]}
